In PubChem BioAssay AID248 (DTP/NCI, 2004):
“And” between values parts separate entries of the source, which are not always exact repeats. Equal values may be shown once. Inconclusive results and toxic doses are left out. Square brackets hold non-standard residues; d marks the D form. Peptide text beside a SMILES is read from it. * marks the point of attachment. ξ: configuration not given here. Cbz = O=C(OCc1ccccc1)*; ξNva = CCCC(N)C(=O)O

System: L1210 leukemia ip in BDF1 mice, survival T/C
Test: NCI In Vivo Anticancer Drug Screen. Data for tumor model L1210 Leukemia (intraperitoneal) in B6D2F1 (BDF1) mice
Conditions: endpoint: mean survival time, higher = longer survival
In short: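 In this screen, tumor-bearing mice given compound are compared to those given vehicle, and their survival values are reported as a treated-to-control quotient.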

[1] = dose: 100.0 mg/kg/injection, schedule: Q01DX001 (ip), vehicle: saline
[2] = dose: 200.0 mg/kg/injection, schedule: Q01DX001 (ip), vehicle: saline
[3] = dose: 100.0 mg/kg/injection, schedule: Q04DX003 (ip), vehicle: saline with Tween-80
[4] = dose: 200.0 mg/kg/injection, schedule: Q04DX003 (ip), vehicle: saline with Tween-80
[5] = dose: 400.0 mg/kg/injection, schedule: Q04DX003 (ip), vehicle: saline with Tween-80
[6] = dose: 100.0 mg/kg/injection, schedule: Q04DX003 (ip), vehicle: Klucel (hydroxypropylcellulose) (HPC)
[7] = dose: 200.0 mg/kg/injection, schedule: Q04DX003 (ip), vehicle: Klucel (hydroxypropylcellulose) (HPC)
[8] = dose: 400.0 mg/kg/injection, schedule: Q04DX003 (ip), vehicle: Klucel (hydroxypropylcellulose) (HPC)
[9] = dose: 100.0 mg/kg/injection, schedule: Q01DX009 (ip), vehicle: Klucel (hydroxypropylcellulose) (HPC)
[10] = dose: 200.0 mg/kg/injection, schedule: Q01DX009 (ip), vehicle: Klucel (hydroxypropylcellulose) (HPC)
[11] = dose: 200.0 mg/kg/injection, schedule: Q01DX001 (ip), vehicle: carboxymethylcellulose (CMC)
[12] = dose: 400.0 mg/kg/injection, schedule: Q01DX001 (ip), vehicle: carboxymethylcellulose (CMC)
[13] = dose: 400.0 mg/kg/injection, schedule: Q01DX001 (ip), vehicle: saline
[14] = dose: 100.0 mg/kg/injection, schedule: Q01DX001 (ip), vehicle: carboxymethylcellulose (CMC)
[15] = dose: 100.0 mg/kg/injection, schedule: Q01DX009 (ip), vehicle: saline
[16] = dose: 200.0 mg/kg/injection, schedule: Q01DX009 (ip), vehicle: saline
[17] = dose: 100.0 mg/kg/injection, schedule: Q01DX001 (ip), vehicle: Klucel (hydroxypropylcellulose) (HPC)
[18] = dose: 200.0 mg/kg/injection, schedule: Q01DX001 (ip), vehicle: Klucel (hydroxypropylcellulose) (HPC)
[19] = dose: 400.0 mg/kg/injection, schedule: Q01DX001 (ip), vehicle: Klucel (hydroxypropylcellulose) (HPC)

`O=C(Nc1cc(C(F)(F)F)cc(C(F)(F)F)c1)Nc1ccc(Oc2ccccc2Cl)c(S(=O)(=O)O)c1` was tested, and the T/C (dose: 100.0 mg/kg/injection, schedule: Q04DX003 (ip), vehicle: saline sonified) was 117 % of control, the T/C (dose: 200.0 mg/kg/injection, schedule: Q04DX003 (ip), vehicle: saline sonified) was 115 % of control and the T/C (dose: 400.0 mg/kg/injection, schedule: Q04DX003 (ip), vehicle: saline sonified) was 121 % of control.
In the case of `O=[N+]([O-])C1C=NCCN=C1`, the T/C (dose: 100.0 mg/kg/injection, schedule: Q04DX013 (ip), vehicle: carboxymethylcellulose (CMC)) is reported as 96 % of control, the T/C (dose: 200.0 mg/kg/injection, schedule: Q04DX013 (ip), vehicle: carboxymethylcellulose (CMC)) is reported as 94 % of control and the T/C (dose: 400.0 mg/kg/injection, schedule: Q04DX013 (ip), vehicle: carboxymethylcellulose (CMC)) is reported as 94 % of control.
With `Cc1cc([N+](=O)[O-])ccc1O` the T/C [1] was 100 % of control and the T/C [2] was 100 % of control.
With `COc1cc([N+](=O)[O-])ccc1NC(=O)c1cccc([N+](=O)[O-])c1C(=O)O` the T/C (dose: 100.0 mg/kg/injection, schedule: Q04DX002 (ip), vehicle: Klucel (hydroxypropylcellulose) (HPC)) was 95 % of control, the T/C (dose: 200.0 mg/kg/injection, schedule: Q04DX002 (ip), vehicle: Klucel (hydroxypropylcellulose) (HPC)) was 103 % of control and the T/C (dose: 400.0 mg/kg/injection, schedule: Q04DX002 (ip), vehicle: Klucel (hydroxypropylcellulose) (HPC)) was 100 % of control.
`CCOC(=O)c1cnc(SC)nc1Nc1ccccc1` was tested, and the T/C [3] was 94 % of control, the T/C [4] was 100 % of control and the T/C [5] was 86 % of control.
`CCCC(NC(=O)CNC(=O)CNC(=O)OCc1ccccc1)C(=O)O` (stereo not drawn) (Cbz-Gly-Gly-[ξNva]-OH) was tested, and the T/C [6] was 101 % of control, the T/C [7] was 106 % of control and the T/C [8] was 106 % of control.
`CCCCCCCCCCCCCC(CC1CCCCC1)CC1CCCCC1` was tested, and the T/C (dose: 100.0 mg/kg/injection, schedule: Q01DX001 (ip), vehicle: saline with Tween-80) was 103 % of control, the T/C (dose: 200.0 mg/kg/injection, schedule: Q01DX001 (ip), vehicle: saline with Tween-80) was 102 % of control and the T/C (dose: 400.0 mg/kg/injection, schedule: Q01DX001 (ip), vehicle: saline with Tween-80) was 100 % of control.
In the case of `CC(=O)c1cccc(NC(=O)Oc2ccc(Cl)cc2Cc2ccccc2)c1`, the T/C [9] is reported as 101 % of control, the T/C [10] is reported as 101 % of control and the T/C (dose: 400.0 mg/kg/injection, schedule: Q01DX009 (ip), vehicle: Klucel (hydroxypropylcellulose) (HPC)) is reported as 95 % of control.
`COc1cc(C=Nc2cc(Br)cc(Br)c2)ccc1N(CCCl)CCCl` was tested, and the T/C (dose: 1.31 mg/kg/injection, schedule: Q01DX009 (ip), vehicle: other) was 113 % of control, the T/C (dose: 2.62 mg/kg/injection, schedule: Q01DX009 (ip), vehicle: other) was 104 % of control and the T/C (dose: 12.5 mg/kg/injection, schedule: Q01DX001 (ip), vehicle: other) was 106 % of control. The T/C (dose: 25.0 mg/kg/injection, schedule: Q01DX001 (ip), vehicle: other) was 120 % of control, the T/C (dose: 50.0 mg/kg/injection, schedule: Q01DX009 (ip), vehicle: other) was 124 % of control and the T/C (dose: 118.0 mg/kg/injection, schedule: Q01DX001 (ip), vehicle: carboxymethylcellulose (CMC)) was 123 % of control. For the same molecule, the T/C (dose: 177.0 mg/kg/injection, schedule: Q01DX001 (ip), vehicle: carboxymethylcellulose (CMC)) was 94 % of control and 108 % of control, the T/C [11] was 124 % of control and the T/C (dose: 266.0 mg/kg/injection, schedule: Q01DX001 (ip), vehicle: carboxymethylcellulose (CMC)) was 88 % of control. For the same molecule, the T/C [12] was 179 % of control.
`CCCCCCCCCC(=O)N/N=C/c1ccncc1` was tested, and the T/C [9] was 89 % of control and the T/C [10] was 103 % of control.
For `Cc1ccc(SCCN)cc1`, the T/C (dose: 75.0 mg/kg/injection, schedule: Q01DX001 (ip), vehicle: saline) was 105 % of control and the T/C (dose: 150.0 mg/kg/injection, schedule: Q01DX001 (ip), vehicle: saline) was 96 % of control.
In the case of `CCOC(=O)C(C#N)=C1CC(C)OC(C)C1` (configuration not stated), the T/C [3] is reported as 100 % of control, the T/C [4] is reported as 97 % of control and the T/C [5] is reported as 103 % of control.
`CN(C)C(=O)Nc1cccc(OC(=O)NC2CC2)c1` was tested, and the T/C [3] was 96 % of control, the T/C [4] was 95 % of control and the T/C [5] was 90 % of control.
`O=C(CCCC(=O)N1CCOCC1)N1CCOCC1` was tested, and the T/C [6] was 108 % of control, the T/C [7] was 103 % of control and the T/C [8] was 101 % of control.
In the case of `Clc1cccc(/C=N/Nc2nnc(N/N=C/c3cccc(Cl)c3)c3ccccc23)c1`, the T/C (dose: 50.0 mg/kg/injection, schedule: Q01DX001 (ip), vehicle: saline) is reported as 100 % of control, the T/C [1] is reported as 103 % of control and the T/C [2] is reported as 100 % of control. The T/C [13] was 100 % of control.
With `NC(=O)C1C(=O)OC2CCCCC21` (configuration not stated) the T/C [1] was 92 % of control, the T/C [2] was 87 % of control and the T/C [13] was 97 % of control.
With `O=C1/C(=N/O)CCCc2ccccc21` the T/C [14] was 103 % of control, the T/C [11] was 97 % of control and the T/C [12] was 103 % of control.
With `Nc1nc(N)c(CCc2ccccc2)c(=O)[nH]1` the T/C [3] was 100 % of control, the T/C [4] was 94 % of control and the T/C [5] was 94 % of control.
With `Cc1ccccc1/C=N/NC(=O)c1cccc2ccccc12` the T/C [1] was 89 % of control and the T/C [2] was 100 % of control.
`CCOC(=O)C(CCCOC(=O)c1cc([N+](=O)[O-])cc([N+](=O)[O-])c1)C(=O)OCC` was tested, and the T/C [1] was 94 % of control, the T/C [15] was 101 % of control and the T/C [2] was 98 % of control. For the same molecule, the T/C [16] was 101 % of control, the T/C [13] was 91 % of control and the T/C (dose: 400.0 mg/kg/injection, schedule: Q01DX009 (ip), vehicle: saline) was 95 % of control.
For `CC1CC(C(C)(C)C)CCC1S` (configuration not stated), the T/C [15] was 95 % of control and the T/C [16] was 88 % of control.
For `CCOC(=O)NN(C(=O)OCC)c1c(N)nc(N)[nH]c1=O`, the T/C [17] was 92 % of control, the T/C [18] was 101 % of control and the T/C [19] was 92 % of control.
For `ClCCOCc1ccccc1`, the T/C [6] was 102 % of control, the T/C [7] was 100 % of control and the T/C [8] was 98 % of control.
For `CCC(Cl)COP(=O)(CC(Cl)CC)OC(C(C)C)P(=O)(OCC(Cl)CC)OCC(Cl)CC` (configuration not stated), the T/C [17] was 108 % of control, the T/C [18] was 101 % of control and the T/C [19] was 101 % of control.
In the case of `CC(=O)Nc1cc(F)c2c(c1)Cc1cc(F)ccc1-2`, the T/C (dose: 50.0 mg/kg/injection, schedule: Q01DX001 (ip), vehicle: carboxymethylcellulose (CMC)) is reported as 102 % of control, the T/C [14] is reported as 98 % of control and the T/C [11] is reported as 93 % of control. The T/C [12] was 93 % of control.
